Read-outs that look alike come from different tables or passages of the source.
Tested on: human monocytic cell line U937
Test: Human U937 cellular necroptosis assay (TNFalpha + z-VAD-FMK, Cell Titer-Glo viability)
Format: cell-based
Settings: U937 cells, 25 ng/mL human TNFalpha + 25 μM z-VAD-FMK, read-out: hU937 Avg IC50
Protocol: The human monocytic cell line U937 (CRL-1593.2) was purchased from ATCC. The cells were routinely maintained in RPMI-1640 Medium (Gibco, Catalog #11875-093) supplemented with 10% heat inactivated fetal bovine serum (Gibco, Catalog #16140-071), 100 units/mL penicillin and 100 μg/mL streptomycin (Gibco, Catalog #15140-122), in a humidified incubator (37° C., 5% CO2). For the assay, cells were resuspended in RPMI-1640 phenol red free Media (Gibco, Catalog #11835-030) supplemented with 10% fetal bovine serum (Sigma, Catalog #F2442), 100 units/mL penicillin and 100 ug/mL streptomycin. Cells were stimulated with 25 ng/mL human TNFalpha (Cell Sciences, Catalog #CSI15659B) and 25 μM z-VAD-FMK (R&D Systems, Catalog #FMK001) followed by seeding 5000 cells per well in a volume of 40 μL to a white, CulturPlate-384 (Perkin Elmer, Catalog #6007680). Stock solutions of the test compounds were prepared in 100% DMSO (Sigma, Catalog #D2650) and serially diluted 1:3 using 100% DMSO. Compounds were additionally diluted 1:40 in assay medium, and 10 μL/well was transferred to the plate. Following the compound addition the plate was incubated at 37° C. and 5% CO2 for 22 h. After 22 h, viability was assessed with the addition of 20 μL of Cell Titer-Glo 2.0 (Promega, Catalog #G9243). The tissue culture plate was shaken on an orbital shaker at 300 RPM for 15 minutes at rt in the dark. Luminescence was measured using a PerkinElmer Envision™ plate reader. IC50 values were calculated using a four-parameter logistic curve fit using Genedata Screener software. Results are shown below in Table 3, where the average value across multiple runs is given.

Compound `N#Cc1ccc2c(cnn2CC23CC(C(=O)N4C[C@@H](O)C[C@H]4c4cccc(F)c4)(C2)C3)c1` (single isomer, unassigned) [Example 262] has an IC50 (Homo sapiens, U-937, 22 h) of 4670 nM.
For `N#Cc1ccc2c(cnn2CC23CC(C(=O)N4C[C@H](O)C[C@H]4c4cccc(F)c4)(C2)C3)c1` (single isomer, unassigned) [Example 263], the IC50 (Homo sapiens, U-937, 22 h) was 9500 nM.
In the case of `N#Cc1ccc2nn(CC34CC(C(=O)N5N=CCC5c5cncc(F)c5)(C3)C4)cc2c1` (stereo not shown) [Example 127, 2-((3-(5-(5-fluoropyridin-3-yl)-4,5-dihydro-1H-pyrazole-1-carbonyl)bicyclo[1.1.1]-pentan-1-yl)methyl)-2H-indazole-5-carbonitrile], the IC50 (Homo sapiens, U-937, 22 h) is reported as 1260 nM.
For `O=C(N1N=CCC1c1cc(F)cc(F)c1)C12CC(Cn3ncc4ncccc43)(C1)C2` (stereo not shown) [Example 148, (3-((1H-pyrazolo[4,3-b]-pyridin-1-yl)methyl)bicyclo-[1.1.1]pentan-1-yl)(5-(3,5-difluorophenyl)-4,5-dihydro-1H-pyrazol-1-yl)methanone], the IC50 (22 h) was 912 nM.
`Cc1ccc2c(cnn2CC23CC(C(=O)N4N=CCC4c4cc(F)cc(F)c4)(C2)C3)n1` (stereo not shown) [Example 165, (5-(3,5-difluorophenyl)-4,5-dihydro-1H-pyrazol-1-yl)(3-((5-methyl-1H-pyrazolo[4,3-b]pyridin-1-yl)methyl)-bicyclo[1.1.1]pentan-1-yl)methanone] showed an IC50 (Homo sapiens, U-937, 22 h) of 193 nM.
Work on `Cc1cc(F)c(C2CC=NN2C(=O)C23CC(COc4cnc(C#N)cn4)(C2)C3)cc1F` (stereo not shown) [Example 195, 5-((3-(5-(2,5-Difluoro-4-methylphenyl)-4,5-dihydro-1H-pyrazole-1-carbonyl)bicyclo[1.1.1]pentan-1-yl)methoxy) pyrazine-2-carbonitrile] yielded an IC50 (Homo sapiens, U-937, 22 h) of 1.5 nM.
Compound `Cc1ccc(C2CC=NN2C(=O)C23CC(COc4cnc(C#N)cn4)(C2)C3)cc1` (stereo not shown) [Example 198, 5-((3-(5-(p-Tolyl)-4,5-dihydro-1H-pyrazole-1-carbonyl)bicyclo[1.1.1]pentan-1-yl)methoxy)pyrazine-2-carbonitrile] has an IC50 (Homo sapiens, U-937, 22 h) of 7.4 nM.
With `Cc1c(F)cc(C2CC=NN2C(=O)C23CC(Cn4ncc5cc(C#N)ccc54)(C2)C3)cc1F` (stereo not shown) [Example 203, 1-((3-(5-(3,5-Difluoro-4-methylphenyl)-4,5-dihydro-1H-pyrazole-1-carbonyl)bicyclo[1.1.1]pentan-1-yl)methyl)-1H-indazole-5-carbonitrile] the IC50 (Homo sapiens, U-937, 22 h) was 5.5 nM.
In the case of `Cn1cc(-c2ccc(OCC34CC(C(=O)N5N=CCC5c5cc(F)cc(F)c5)(C3)C4)c(F)c2)cn1` (stereo not shown) [Example 204, (5-(3,5-Difluorophenyl)-4,5-dihydro-1H-pyrazol-1-yl)(3-((2-fluoro-4-(1-methyl-1H-pyrazol-4-yl)phenoxy)methyl)bicyclo[1.1.1]pentan-1-yl)methanone], the IC50 (Homo sapiens, U-937, 22 h) is reported as 22 nM.
Compound `N#Cc1cnc(NCC23CC(C(=O)N4N=CCC4c4cc(F)cc(F)c4)(C2)C3)cn1` (stereo not shown) [Example 205, 5-(((3-(5-(3,5-Difluorophenyl)-4,5-dihydro-1H-pyrazole-1-carbonyl)bicyclo[1.1.1]pentan-1-yl)methyl)amino)pyrazine-2-carbonitrile] has an IC50 (Homo sapiens, U-937, 22 h) of 436 nM.
For `CN(CC12CC(C(=O)N3N=CCC3c3cc(F)cc(F)c3)(C1)C2)c1cnc(C#N)cn1` (stereo not shown) [Example 206, 5-(((3-(5-(3,5-Difluorophenyl)-4,5-dihydro-1H-pyrazole-1-carbonyl)bicyclo[1.1.1]pentan-1-yl)methyl)(methyl)amino)pyrazine-2-carbonitrile], the IC50 (Homo sapiens, U-937, 22 h) was 109 nM.
In the case of `N#Cc1cnc(OCC23CC(C(=O)N4N=CCC4c4ccc(F)c(CO)c4)(C2)C3)cn1` (stereo not shown) [Example 207, 5-((3-(5-(4-Fluoro-3-(hydroxymethyl)phenyl)-4,5-dihydro-1H-pyrazole-1-carbonyl)bicyclo[1.1.1]pentan-1-yl)methoxy)pyrazine-2-carbonitrile], the IC50 (Homo sapiens, U-937, 22 h) is reported as 633 nM.
`N#Cc1cnc(OCC23CC(C(=O)N4[C@@H]5C[C@@H]5C[C@H]4c4cc(F)cc(F)c4)(C2)C3)cn1` [Example 209, 5-((3-((1R,3S,5R)-3-(3,5-difluorophenyl)-2-azabicyclo[3.1.0]hexane-2-carbonyl)bicyclo[1.1.1]pentan-1-yl)methoxy)pyrazine-2-carbonitrile] gave an IC50 (Homo sapiens, U-937, 22 h) of 362 nM.
Work on `N#Cc1cnc2c(ccn2CC23CC(C(=O)N4N=CCC4c4cc(F)cc(F)c4)(C2)C3)n1` (stereo not shown) [Example 211, 5-((3-(5-(3,5-difluorophenyl)-4,5-dihydro-1H-pyrazole-1-carbonyl)bicyclo[1.1.1]pentan-1-yl)methyl)-5H-pyrrolo[2,3-b]pyrazine-2-carbonitrile] yielded an IC50 (Homo sapiens, U-937, 22 h) of 16 nM.
With `N#Cc1cc2cnn(CC34CC(C(=O)N5N=CCC5c5cc(F)cc(F)c5)(C3)C4)c2cc1Cl` (stereo not shown) [Example 214, 6-chloro-1-((3-(5-(3,5-difluorophenyl)-4,5-dihydro-1H-pyrazole-1-carbonyl)-bicyclo[1.1.1]pentan-1-yl)-methyl)-1H-indazole-5-carbonitrile] the IC50 (Homo sapiens, U-937, 22 h) was 71 nM.
Compound `COc1ccc2c(cnn2CC23CC(C(=O)N4N=CCC4c4cc(F)cc(F)c4)(C2)C3)n1` (stereo not shown) [Example 215, (5-(3,5-difluorophenyl)-4,5-dihydro-1H-pyrazol-1-yl)(3-((5-methoxy-1H-pyrazolo[4,3-b]pyridin-1-yl)methyl)bicyclo-[1.1.1]pentan-1-yl)methanone] has an IC50 (Homo sapiens, U-937, 22 h) of 80 nM.
In the case of `Cc1cc2n(CC34CC(C(=O)N5N=CCC5c5cc(F)cc(F)c5)(C3)C4)ccn2n1` (stereo not shown) [Example 216, (5-(3,5-difluorophenyl)-4,5-dihydro-1H-pyrazol-1-yl)(3-((6-methyl-1H-imidazo[1,2-b]pyrazol-1-yl)methyl)bicyclo-[1.1.1]pentan-1-yl)methanone], the IC50 (Homo sapiens, U-937, 22 h) is reported as 92 nM.
With `N#Cc1nc(C2CC2)nn1CC12CC(C(=O)N3N=CCC3c3cc(F)cc(F)c3)(C1)C2` (stereo not shown) [Example 217, 3-cyclopropyl-1-((3-(5-(3,5-difluorophenyl)-4,5-dihydro-1H-pyrazole-1-carbonyl)-bicyclo[1.1.1]pentan-1-yl)-methyl)-1H-1,2,4-triazole-5-carbonitrile] the IC50 (Homo sapiens, U-937, 22 h) was 99 nM.
In the case of `N#Cc1cc2cn(CC34CC(C(=O)N5N=CCC5c5cc(F)cc(F)c5)(C3)C4)nc2cc1Cl` (stereo not shown) [Example 220, 6-chloro-2-((3-(5-(3,5-difluorophenyl)-4,5-dihydro-1H-pyrazole-1-carbonyl)-bicyclo[1.1.1]pentan-1-yl)-methyl)-2H-indazole-5-carbonitrile], the IC50 (Homo sapiens, U-937, 22 h) is reported as 312 nM.
`N#Cc1nc(C2CC2)n(CC23CC(C(=O)N4N=CCC4c4cc(F)cc(F)c4)(C2)C3)n1` (stereo not shown) [Example 221, 5-cyclopropyl-1-((3-(5-(3,5-difluorophenyl)-4,5-dihydro-1H-pyrazole-1-carbonyl)-bicyclo[1.1.1]pentan-1-yl)-methyl)-1H-1,2,4-triazole-3-carbonitrile] was tested, and the IC50 (Homo sapiens, U-937, 22 h) was 992 nM.
`Cc1nc(CC#N)nn1CC12CC(C(=O)N3N=CCC3c3cc(F)cc(F)c3)(C1)C2` (stereo not shown) [Example 223, 2-(1-((3-(5-(3,5-difluoro-phenyl)-4,5-dihydro-1H-pyrazole-1-carbonyl)bicyclo-[1.1.1]pentan-1-yl)methyl)-5-methyl-1H-1,2,4-triazol-3-yl)acetonitrile] showed an IC50 (Homo sapiens, U-937, 22 h) of 9740 nM.
With `N#Cc1ccc(OCC23CC(C(=O)N4N=CCC4c4cc(F)cc(F)c4)(C2)C3)cn1` (stereo not shown) [Example 224, 5-((3-(5-(3,5-difluorophenyl)-4,5-dihydro-1H-pyrazole-1-carbonyl)bicyclo[1.1.1]pentan-1-yl)methoxy)picolinonitrile] the IC50 (Homo sapiens, U-937, 22 h) was 51 nM.
